Data on 17 molecules can be found in patent publication US8067613B2 (Abbott Laboratories, priority 2007, dated 2011).

The structures appear in SMILES notation.

The target in this test is T1, Recombinant Human Poly(ADP-Ribose)Polymerase (PARP), PARP-1 (Homo sapiens, UniProt P09874).
T1 construct: purchased Trevigen (Gaithersburg, Md.); host or cells: E. coli
T1 sequence (P09874 whole entry): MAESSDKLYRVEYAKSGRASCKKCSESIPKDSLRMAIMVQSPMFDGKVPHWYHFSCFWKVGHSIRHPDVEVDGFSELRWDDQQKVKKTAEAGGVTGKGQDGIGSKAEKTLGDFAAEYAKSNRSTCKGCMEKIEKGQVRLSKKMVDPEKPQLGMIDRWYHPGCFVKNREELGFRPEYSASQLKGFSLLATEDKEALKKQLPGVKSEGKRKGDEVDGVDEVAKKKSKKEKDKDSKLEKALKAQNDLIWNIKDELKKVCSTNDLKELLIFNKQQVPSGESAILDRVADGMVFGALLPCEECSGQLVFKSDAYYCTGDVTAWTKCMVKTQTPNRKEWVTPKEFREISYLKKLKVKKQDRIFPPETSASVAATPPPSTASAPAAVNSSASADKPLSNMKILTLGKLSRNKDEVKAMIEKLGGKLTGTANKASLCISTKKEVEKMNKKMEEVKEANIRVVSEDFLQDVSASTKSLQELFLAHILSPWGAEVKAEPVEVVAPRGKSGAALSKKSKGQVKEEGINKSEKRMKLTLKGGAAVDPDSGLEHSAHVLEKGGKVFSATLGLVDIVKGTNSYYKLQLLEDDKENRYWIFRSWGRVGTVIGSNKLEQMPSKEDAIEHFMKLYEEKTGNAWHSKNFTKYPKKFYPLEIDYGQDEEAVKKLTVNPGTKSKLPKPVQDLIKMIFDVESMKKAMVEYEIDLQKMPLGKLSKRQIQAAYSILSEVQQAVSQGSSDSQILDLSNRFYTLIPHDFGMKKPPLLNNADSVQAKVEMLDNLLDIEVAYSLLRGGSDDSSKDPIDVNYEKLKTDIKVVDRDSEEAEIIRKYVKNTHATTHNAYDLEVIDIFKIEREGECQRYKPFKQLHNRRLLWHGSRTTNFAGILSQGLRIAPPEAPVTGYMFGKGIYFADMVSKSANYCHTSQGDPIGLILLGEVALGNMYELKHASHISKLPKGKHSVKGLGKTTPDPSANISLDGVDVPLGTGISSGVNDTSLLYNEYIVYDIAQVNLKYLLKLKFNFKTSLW
Nature of the test: PARP1 assay (SPA/FlashPlate, [3H]-NAD+ incorporation into biotinylated histone H1). The format is biochemical. The note with it: 1 nM PARP enzyme, 1.5 μM [3H]-NAD+, 200 nM biotinylated histone H1, 200 nM slDNA; Ki from inhibition curves at various substrate concentrations. On the procedure: Nicotinamide[2,5′,8-3H]adenine dinucleotide and strepavidin SPA beads were obtained from Amersham Biosiences (UK). Recombinant Human Poly(ADP-Ribose)Polymerase (PARP), purified from E. coli and 6-Biotin-17-NAD^+, were obtained from Trevigen (Gaithersburg, Md.). NAD^+, histone, aminobenzamide, 3-aminobenzamide and Calf Thymus DNA (dcDNA) were obtained from Sigma (St. Louis, Mo.). Stem loop oligonucleotide containing MCAT sequence was obtained from Qiagen. The oligos were dissolved to 1 mM in annealing buffer containing 10 mM Tris HCl (pH 7.5), 1 mM EDTA, and 50 mM NaCl, incubated for 5 minutes at 95° C. and annealed at 45° C. for 45 minutes. Histone H1 (95% electrophoretically pure) was obtained from Roche (Indianapolis, Ind. Biotinylated histone H1 was prepared by treating the protein with Sulfo-NHS-LC-Biotin (Pierce Rockford, Ill.). The biotinylation reaction was conducted by slowly and intermittently adding 3 equivalents of 10 mM Sulfo-NHS-LC-Biotin to 100 μM Histone H1 in phosphate-buffered saline, pH 7.5, at 4° C. with gentle vortexing over 1 minute then incubation at 4° C. for 1 hour. Streptavidin coated (FlashPlate Plus) microplates were obtained from Perkin Elmer (Boston, Mass.).
PARP1 assay was conducted in PARP assay buffer containing 50 mM tris (pH 8.0), 1 mM DTT and 4 mM MgCl2. PARP reactions contained 1.5 μM [^3H]-NAD^+ (1.6 μCi/mmol), 200 nM biotinylated histone H1, 200 nM slDNA, and 1 nM PARP enzyme. Auto reactions utilizing SPA bead-based detection were carried out in 100 μL volumes in white 96 well plates.
Reactions were initiated by adding 50 μL of 2×NAD^+ substrate mixture to 50 μL of 2× enzyme mixture containing PARP and DNA. These reactions were terminated by the addition of 150 μL of 1.5 mM benzamide (1000-fold over its IC50). 170 μL of the stopped reaction mixtures were transferred to streptavidin Flash Plates, incubated for 1 hour and counted using a TopCount microplate scintillation counter. The Ki data (in nM) for representative compounds of this invention were determined from inhibition curves at various substrate concentrations and are shown in TABLE 1.
As to `Cc1nnc(-c2ccc(-c3nc4c(C(N)=O)cccc4[nH]3)nc2)o1` [Example 53, 2-[5-(5-methyl-1,3,4-oxadiazol-2-yl)pyridin-2-yl]-1H-benzimidazole-4-carboxamide], the Ki stood at 317 nM. In the case of `NC(=O)c1cccc2[nH]c(-c3ccc(-c4nnc(C(F)(F)F)o4)cn3)nc12` [Example 52, 2-{5-[5-(trifluoromethyl)-1,3,4-oxadiazol-2-yl]pyridin-2-yl}-1H-benzimidazole-4-carboxamide] it was 14 nM; in that of `NC(=O)c1cccc2[nH]c(-c3ccc(C4CCCN4C4CCCC4)nc3)nc12` (centres unmarked) [Example 47, 2-[6-(1-cyclopentylpyrrolidin-2-yl),pyridin-3-yl]-1H-benzimidazole-4-carboxamide], 14 nM.

Consider `CCCN1CCC[C@@H]1c1ccc(-c2nc3c(C(N)=O)cccc3[nH]2)s1` [Example 19, 2-(5-((2R)-1-propylpyrrolidin-2-yl)thien-2-yl)-1H-benzimidazole-4-carboxamide], for which the Ki came out at 8 nM. The value for `NC(=O)c1cccc2[nH]c(-c3csc(C4CCN(C5CCC5)CC4)n3)nc12` [Example 9, 2-(2-(1-cyclobutylpiperidin-4-yl)-1,3-thiazol-4-yl)-1H-benzimidazole-4-carboxamide] was 44 nM; that for `NC(=O)c1cccc2[nH]c(-c3ccc(-c4ccncc4)s3)nc12` [Example 14, 2-(5-pyridin-4-ylthien-2-yl)-1H-benzimidazole-4-carboxamide] was 3.2 nM; that for `NC(=O)c1cccc2[nH]c(-c3ccc(-c4cnccn4)s3)nc12` [Example 11, 2-(5-pyrazin-2-ylthien-2-yl)-1H-benzimidazole-4-carboxamide] was 2 nM.

As for `CC(C)N1CCCC1c1ccc(-c2nc3c(C(N)=O)cccc3[nH]2)cn1` (centres unmarked) [Example 44, 2-[6-(1-isopropylpyrrolidin-2-yl)pyridin-3-yl]-1H-benzimidazole-4-carboxamide], the inhibition constant Ki was determined as 41 nM.

Turning to `NC(=O)c1cccc2[nH]c(-c3ccc(-c4ccccn4)s3)nc12` [Example 10, 2-(5-pyridin-2-ylthien-2-yl)-1H-benzimidazole-4-carboxamide], the Ki worked out at 3.1 nM.

Consider `CC(C)N1CCC(c2nc(-c3nc4c(C(N)=O)cccc4[nH]3)cs2)CC1` [Example 7, 2-(2-(1-isopropylpiperidin-4-yl)-1,3-thiazol-4-yl)-1H-benzimidazole-4-carboxamide], for which the Ki came to 61 nM.

Regarding `NC(=O)c1cccc2[nH]c(-c3ccc(C4CCCN4)s3)nc12` (centres unmarked) [Example 34, 2-(5-pyrrolidin-2-ylthien-2-yl)-1H-benzimidazole-4-carboxamide], the inhibition constant Ki was determined as 7 nM.

In the case of `NC(=O)c1cccc2[nH]c(-c3ccc([C@H]4CCCN4C4CCC4)s3)nc12` [Example 21, 2-(5-((2R)-1-cyclobutylpyrrolidin-2-yl)thien-2-yl)-1H-benzimidazole-4-carboxamide], the Ki was 4 nM. In the case of `CC(C)N1CCC[C@@H]1c1ccc(-c2nc3c(C(N)=O)cccc3[nH]2)s1` [Example 18, 2-(5-((2R)-1-isopropylpyrrolidin-2-yl)thien-2-yl)-1H-benzimidazole-4-carboxamide] it was 6 nM; in that of `NC(=O)c1cccc2[nH]c(-c3ccc([C@H]4CCCN4Cc4ccccn4)s3)nc12` [Example 25, 2-(5-((2R)-1-(pyridin-2-ylmethyl)pyrrolidin-2-yl)thien-2-yl)-1H-benzimidazole-4-carboxamide], 10 nM; in that of `NC(=O)c1cccc2[nH]c(-c3ccc([C@H]4CCCN4C4CCCCC4)s3)nc12` [Example 23, 2-(5-((2R)-1-cyclohexylpyrrolidin-2-yl)thien-2-yl)-1H-benzimidazole-4-carboxamide], 8 nM.

Take `NC(=O)c1cccc2[nH]c(-c3csc(-c4cccs4)n3)nc12` [Example 4, 2-(2-thien-2-yl-1,3-thiazol-4-yl)-1H-benzimidazole-4-carboxamide]: the Ki came to 20.9 nM. In the case of `NC(=O)c1cccc2[nH]c(-c3ccc(-c4ccc[nH]4)s3)nc12` [Example 15, 2-(5-(1H-pyrrol-2-yl)thien-2-yl)-1H-benzimidazole-4-carboxamide] it was 5 nM.

The Ki is a measure of affinity in units of concentration, obtained from inhibition or displacement.
